Measured values: paper PMC8509980 (Chinese Medical Journal, 2021)

Target: T1, sineoculis homeobox homolog 1 (SIX1) (Homo sapiens, UniProt Q15475)
T1 sequence (Q15475 1-284): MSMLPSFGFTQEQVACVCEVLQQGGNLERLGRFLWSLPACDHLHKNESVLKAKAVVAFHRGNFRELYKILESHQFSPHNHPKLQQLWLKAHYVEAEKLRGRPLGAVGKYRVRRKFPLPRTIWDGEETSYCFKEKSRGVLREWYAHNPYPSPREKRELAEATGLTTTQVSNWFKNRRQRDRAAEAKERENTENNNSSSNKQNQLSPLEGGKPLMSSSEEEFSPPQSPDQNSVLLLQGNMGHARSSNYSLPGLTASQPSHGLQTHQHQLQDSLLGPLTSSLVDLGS
T1 sequence (Q99502 1-592 partner): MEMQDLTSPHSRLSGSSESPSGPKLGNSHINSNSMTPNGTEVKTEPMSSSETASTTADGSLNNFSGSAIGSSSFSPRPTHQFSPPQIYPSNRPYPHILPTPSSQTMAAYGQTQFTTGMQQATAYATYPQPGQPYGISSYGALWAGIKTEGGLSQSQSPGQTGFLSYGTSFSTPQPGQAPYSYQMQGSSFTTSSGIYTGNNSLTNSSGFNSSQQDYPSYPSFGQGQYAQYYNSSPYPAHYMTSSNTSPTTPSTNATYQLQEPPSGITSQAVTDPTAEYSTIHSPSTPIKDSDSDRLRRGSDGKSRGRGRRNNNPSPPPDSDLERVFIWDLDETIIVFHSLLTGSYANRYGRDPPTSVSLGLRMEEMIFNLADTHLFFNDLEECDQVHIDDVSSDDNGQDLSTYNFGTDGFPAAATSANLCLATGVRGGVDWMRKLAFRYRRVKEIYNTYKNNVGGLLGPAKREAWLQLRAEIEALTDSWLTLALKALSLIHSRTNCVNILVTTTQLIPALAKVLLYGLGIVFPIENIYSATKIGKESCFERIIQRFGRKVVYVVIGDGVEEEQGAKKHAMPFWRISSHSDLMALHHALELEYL
Assay: AlphaScreen disruption of purified GST-SIX1/His-EYA1 interaction
Format: binding

Substance | IC50
NSC0191 | 12.6 ± 1.15 µM
NSC0933 | 83.4 ± 7.24 µM
